row,melting point [°C],Compound
1,99 to 100,OC(C#CI)(c1ccc(-c2ccccc2)cc1)c1cccc(Cl)c1 (stereo not given)
2,239 to 241,Cc1ccnc2c1N(O)C(=O)c1cccnc1N2C1CC1
3,82 to 86,C[Si](C)(C)c1cc(Cl)sc1C(=O)NCCOS(C)(=O)=O
4,212 to 214,CCC12CCC(=O)C=C1c1c(cc(OCC(=O)O)c(Cl)c1Cl)C2C (stereo not given)
5,135 to 137,CCc1cccc(-c2cn(C)cc(-c3ccccc3)c2=O)c1
6,97.9 to 98.5,CCc1ccc(Nc2c(C(=O)NN)ccc(F)c2F)c(F)c1
7,114 to 115,CCC1Oc2ccc(C(C)C(=O)O)cc2C(=O)C1C (stereo not given)
8,194 to 195,CS(=O)CC(=N)c1ccccc1O (stereo not given)
9,77 to 84,COc1ccc(C(=O)Nc2ccc(N3CCC(NC[C@H](O)COc4ccc(O)cc4)CC3)cc2)cc1OC
10,244 to 247,CC(=O)N1CCc2cc(O)c(C(F)(F)F)cc21
11,162 to 164,CC(=O)OCc1ccc(-c2[nH]c(-c3cccc4ccccc34)nc2C(=O)OC(C)(C)C)cc1
12,143 to 145,COC(=O)c1cn(C2CC2)c2c(OC)c(N3CCC(CN)(CF)C3)c(F)cc2c1=O (stereo not given)
13,160,CC(C)(C)NS(=O)(=O)c1ccccc1C(O)c1ccccc1 (stereo not given)
14,162 to 163,CN(Cc1ccc(Cl)cc1)S(=O)(=O)c1cn(S(=O)(=O)N(C)C)c(C#N)n1
15,96,COc1cccc2c1CC(C(=O)NCCOc1ccc(CC(=O)O)cc1)N2S(=O)(=O)c1ccc(-c2cccc(C(F)(F)F)c2)cc1 (stereo not given)
16,125 to 126,CC1=CC(=C(CC(C)CC(C)(C)C)c2cc(C)cc(C)c2OCc2ccccc2)C(O)C(C)=C1 (stereo not given)
17,72,CS(=O)c1nsc(Cl)n1 (stereo not given)
18,153 to 161,Nc1ccccc1C(=O)c1ccncc1
19,138 to 140,O=C(O)C1CCN(c2nnc(NCc3ccc4c(c3)OCO4)c3ccncc23)CC1
20,103 to 106,Cc1cc(N2CC=CCC2)nn2cnnc12
21,227 to 229,CC(C)CCn1c(=O)[nH]c2cc(Cl)cc(Cl)c2c1=O
22,108 to 109,O=C(NCCO)c1cccc(-c2ccc3c(c2)N(c2cc(Cl)cc(Cl)c2)CC3)c1
23,113 to 116,COc1ccc(-c2ccc3c(C(=O)N(C)C)cccc3c2)cc1
24,117 to 118,C=CCOC(=O)c1ccc(-c2ccc3cc(OCCCCC(=O)OCC)c(C45CC6CC(CC(C6)C4)C5)cc3c2)cc1

row,melting point [°C],Compound
1,120 to 122,CCCCCCN(CCC12CC3CC(CC(C3)C1)C2)C(=O)NCCCc1ccncc1
2,225 to 228,COc1c(-c2cccs2)ccc2c(OC)c(-c3cccs3)ccc12
3,170,Cc1cc(OCc2nc(-c3ccc(C(F)(F)F)cc3)no2)ccc1OC(C)(C)C(=O)O
4,230 to 231,Cc1ccc(-c2ccc3c(c2)C=C(C(=O)O)CC3)cc1
5,155 to 156,CCOC(=O)Cn1c(=S)n(Cc2ccc(Cl)c(Cl)c2)c(=S)c2ccccc21
6,137 to 138,COc1cc(COc2nn(-c3ccccc3)cc2/C=C\c2cscn2)ccc1OCc1nc(-c2ccco2)oc1C
7,283 to 284,Cc1c(Cl)cccc1S(=O)(=O)Nc1ccc2c(c1)nc(C)n2C
8,125 to 127,S=C1Nc2ccccc2N2CCN(Cc3ccccc3)CCN12
9,220 to 227,CC(CO)(CO)Nc1nc(SCc2cccc(F)c2F)nc2nc(N)cnc12
10,155,Cc1ccc(C)c(C(=O)NCC23CC4CC(CC(Cl)(C4)C2)C3)c1
11,> 250,Nc1nc2ccccc2c2c1ncn2CC1(O)CCCCC1
12,113 to 114,COc1cccc(CC(=O)O)c1OCc1nc(OC(C)C)c(C(=O)NCc2ccc(Cl)cc2Cl)s1
13,235 to 236,CC1=C(c2ccccc2)C(=O)c2ccccc2C1=O
14,170 to 172,CN1CCCC(COc2ccc(C(=O)NN)cc2)C1 (stereo not given)
15,51.4 to 53.4,CC(C)(C)C(=O)Nc1ccc(Cl)cn1
16,187 to 189,CC(=O)SCC(Cc1ccccc1)C(=O)Nc1ccc(C)c(C(=O)O)c1C (stereo not given)
17,88 to 90,Cc1c(-c2ccccc2)c(Cl)nc2ccccc12
18,62 to 68,Nc1ccc(C(O)C(CO)N2CCC(Cc3ccccc3)CC2)cc1 (stereo not given)
19,98,O=S(=O)(CC(O)(CI)c1ccccc1)c1ccccc1 (stereo not given)
20,51 to 52,CCOP(=O)(OCC)C(CCc1cc(C)nc2cc(-c3ccccc3)nn12)P(=O)(OCC)OCC
21,66 to 68,CC(=O)OCc1ccc(C=Cc2csc3ccccc23)s1
22,223 to 229,Cc1cn(-c2cc(NC(=O)n3ccc4cc(Oc5cc(CC(N)=O)ncn5)ccc43)cc(C(F)(F)F)c2)cn1
23,164,Cc1ccc2c(N3CCN(CCc4cccc(N5CCNC5=O)c4)CC3)cccc2n1
24,147 to 149,COc1ccc(COc2cc(NC(C)=O)c(Cl)cc2C(=O)CCCCCl)cc1

row,melting point [°C],Compound
1,256 to 257,CON=C1CN(c2c(F)c(N)c3c(=O)c(C(=O)O)cn(C4CC4)c3c2F)CC12CN(C(=O)OC(C)(C)C)C2
2,120 to 123,C(#COCC1CCN(Cc2ccccc2)CC1)Cc1ccccc1
3,56 to 59,Nc1c(Cl)cc(C(O)CNCCCCCCOCCCc2ccc(CO)cc2)cc1Cl (stereo not given)
4,122 to 124,"CC(C)=CCCC(C)CCS(=O)c1nc2ccccc2[nH]1 (single isomer, unassigned; (+))"
5,144 to 146,CC(CCCc1cccnc1)NC(=O)C(O)c1ccccc1 (stereo not given)
6,177 to 179,COC(=O)COCc1c(OC)ccc(OC)c1C=O
7,129 to 130,Cc1ccc(S(=O)(=O)Cc2ccc(C(C)(C)N)cc2)cc1C
8,157 to 159,O=c1ccn(CCOCCO)c(C(O)c2ccccc2)c1OCc1ccccc1 (stereo not given)
9,157 to 158,Cc1ccc2c(c1)N(C1CC1)CNS2(=O)=O
10,204 to 206,O=c1nc(Cc2ccccc2)nc2n(C3CCCC3)[nH]c(Cc3ccccc3)c1-2
11,178 to 180,CCc1ccc2c(c1)C=Cc1ccccc1C2c1cn(Cc2ccc(C(=O)O)o2)c(=O)[nH]c1=O (stereo not given)
12,138 to 140,COc1ccc(C2CC(=O)Nc3ccccc3C(=O)C2)cc1 (stereo not given)
13,105 to 107,COc1cc(Cc2ccc(N)c(C#N)c2)cc(OC)c1
14,193 to 195,COC(=O)c1cc(O)c2cc(OC)ccc2c1
15,231,CC(Nc1nc(Oc2cccc3sc(N)nc23)cc(-c2ccc(C(F)(F)F)cc2)n1)c1ccc(F)cc1 (stereo not given)
16,124 to 125,CN(N)C1=NOCc2ccc(Cl)cc21
17,93 to 94.6,CC(=O)OC(OC(C)=O)c1ccc(C(OC(C)=O)(C(F)(F)F)C(F)(F)F)cc1
18,217 to 220,Cn1ccnc1Sc1ccc(Nc2c(C#N)cnc3cc(/C=C/CCOC4CCCCO4)ccc23)cc1Cl (stereo not given)
19,80 to 85,COc1cc(C)nc(C#N)n1
20,238 to 240,COc1c(Br)cc(-c2c3ccccc3cc3sc4ccccc4c23)cc1Br
21,125 to 127,COc1cc2cc(C(=O)OC(C)(C)C)c(N)cc2cc1OCCN1CCOCC1
22,155 to 156,COCCN(C)Cc1c(-c2ccc(NC(=O)NOC)cc2)sc2c1c(=O)n(-c1ccc3c(c1)OCCO3)c(=O)n2Cc1c(F)cccc1F
23,164,N#Cc1cnn2cccc2c1Nc1ccccc1
24,67,O=CN(CCl)c1ccccc1

row,melting point [°C],Compound
1,115,O=S(=O)(Nc1cc(F)ccc1F)c1ccccc1
2,121 to 124,CNc1cc(OC)c(OC)cc1C(C)=O
3,232 to 233,CC(C)(C)C(=O)Nc1ccncc1-c1n[nH]c2ccccc12
4,150 to 151,CCC(=O)Oc1c(OC)cc(C)c(C(=O)c2c(OC)ccc(Cl)c2C)c1OC
5,126 to 127,O=C1c2ccccc2C(=O)N1OCF
6,248 to 249,CC(C)(C)COc1ccc(N(CC(=O)O)C(=O)c2ccn(-c3ccc(F)cc3)c2)cc1C#N
7,180 to 182,O=c1[nH]c2ccc(OCCCCN3CCC(c4cccc(Cl)c4Cl)CC3)cc2[nH]1
8,194 to 195,CS(=O)(=O)N[C@H]1C[C@H](C(=O)O)Nc2cc(Cl)cc(Cl)c21 (relative stereo)
9,182 to 184,O=C(NCCO)c1cnc(C(=O)NCCO)s1
10,156,CC(C)(C)NC(=O)NN1CC=CCC1
11,100 to 101,CNCCON=C1c2ccccc2C2CC2c2ccccc21 (stereo not given)
12,99 to 100,CCCCNC(=O)Oc1ccc(C(O)(CC)c2cccc(C(F)(F)F)c2)cc1 (stereo not given)
13,232 to 233,Cc1cc(Cl)cc2c1OC(C(F)(F)F)C(C(=O)O)=C2 (stereo not given)
14,176 to 177,Cc1nc(N)cc(-n2ccc3ccccc32)n1
15,69 to 73,CC(C)[C@H](NC(=O)N(C)Cc1cscn1)C(=O)N[C@@H](Cc1ccccc1)C[C@H](O)[C@H](Cc1ccccc1)NC(=O)OCc1cccnc1
16,106 to 107,Cc1c(F)c(N)cc([N+](=O)[O-])c1F
17,140 to 141,COc1cc(CO)ccc1OCc1nc(-c2cccc(OS(C)(=O)=O)c2)oc1C
18,122 to 123,CCOC(=O)c1cnn(-c2ccc(Oc3ccc(C)cc3O)cc2)c1
19,105 to 107,CS(=O)CC1=C(c2ccccc2)C(=O)N(C(C)(C)C(=O)Nc2cc(F)ccc2F)CO1 (stereo not given)
20,90,CC(C)(C)OC(=O)c1cc(I)ccc1OCc1ccc2ccccc2c1
21,131 to 132,Cc1ccc(C(=O)c2cc(CN(C)CCO)c(O)c(C(C)(C)C)c2)cc1
22,209 to 211,O=C(Nc1ccc2cc(CN3CCCCC3)ccc2c1)N1CCC(c2ccc(F)cc2)CC1

row,Compound,melting point [°C]
1,O=C(CCl)Oc1ccccc1O,32 to 35
2,CN1CCN(C(=O)OC2c3ccccc3C(=O)N2c2ccc3cnccc3n2)CC1 (stereo not given),215
3,CC1=CC2c3cccc4[nH]c(SC(C)C)c(c34)CC2N(C)C1 (stereo not given),145 to 147
4,CCc1cccc2c1N(CC(=O)N1CC3CCC(CC3)C1)C(=O)C(NC(=O)Nc1cccc(C)c1)N=C2c1ccccc1F (stereo not given),163 to 168
5,COC(=O)c1cncn1C1c2ccccc2C(=O)C1(C)C (stereo not given),104 to 108
6,O=C(Nc1cnc2cc[nH]c2c1)c1cc2cc(F)ccc2n1Cc1cccc(F)c1,277 to 278
